From US10435399B2, “HDAC6 inhibitory heterocyclic compound” (TAKEDA PHARMACEUTICAL COMPANY LIMITED, priority 2017, dated 2019)

Columns and labels:
[1] = tested on: TK6 cells; experiment: γH2AX assay using TK6 cells; type: cell-based, Human; conditions: 4 hr treatment, up to 100 μM
Experimental: γH2AX Assay Using TK6 Cells
Human lymphoblasts-derived TK6 cells were treated with the compounds of Examples 489, 512 or 519 at 0, 10, 30 or 100 μmol/L (final concentration) for 4 hr, and the presence or absence of DNA damage was evaluated by measuring phosphorylation of histone H2AX (γH2AX) as a marker. In addition, cytotoxicity after 24-hr treatment was also evaluated.
Exponentially growing TK6 cells were prepared at the cell density of 4×10^5 cells/mL in a culture medium, and was added to a 96-well plate by 100 μL/well. A test compound solution (2% DMSO) prepared using a culture solution, having twice the concentration on the above-mentioned final concentrations, was added thereto by 100 μL/well. This plate was incubated at 37° C., the cell suspension after 4 hr was sampled, and stained using In Vitro MultiFlow™ DNA Damage Kit (Litron), and H2AX phosphorylation level in each nucleus was measured using a flow cytometer and average value was calculated. The H2AX phosphorylation level in the concurrent vehicle control group was also measured and average value was calculated. The rate of change in the H2AX phosphorylation level in the treatment groups relative to that in the control group was calculated, and Dunnett test (significance level: two-tailed 1%) was performed. In addition, the cell suspension after 24 hr treatment was sampled, and the nucleus number was measured, and variation in the nucleus number in the treatment groups relative to that in the concurrent vehicle control group was used as an indicator of cytotoxicity. […] Therefore, the potential of the compounds for DNA strand breakage was judged to be negative under this test condition.

[2] = tested on: bone-marrow cells; experiment: Micronucleus test in rats (bone-marrow cells); type: in vivo, rats (Crl:CD(SD)); conditions: rats, 1000 mg/kg and 2000 mg/kg once daily for 3 days
Experimental: Combination Assay of Micronucleus Test and Comet Assay in Rats […] Bone-marrow smear for micronucleus analysis was prepared as follows. Femur was cut at both ends, and washed with fetal bovine serum (FBS) in a centrifuging tube, and the obtained bone-marrow fluid was centrifuged for 5 min at room temperature. The supernatant was removed, and the cell sediment was suspended in the remaining small amount of the supernatant. A part of the suspension was dropped on a glass slide, and a cover glass was placed thereon to give a bone-marrow smear. The smear was dried well, and fixed with methanol for 5 min. The bone-marrow smear of negative control, that of treatment groups as well as the previously prepared bone-marrow smear of positive control group were encoded, and observed by the blind method. An acridine orange solution (40 μg/mL) was dropped (several drops) to the smear just before observation, and a cover glass was placed thereon. […] In addition, as an index of growth inhibitory effect on bone-marrow cell, total of 500 erythrocytes [immature erythrocytes+mature erythrocytes (ME)] per individual were observed, and immature erythrocyte rate (IE %) relative to the total number of erythrocytes was calculated.

[3] = tested on: liver and glandular stomach cells; experiment: Comet assay in rats (liver and glandular stomach); type: in vivo, rats (Crl:CD(SD)); conditions: rats, 1000 mg/kg and 2000 mg/kg once daily for 3 days
Experimental: Combination Assay of Micronucleus Test and Comet Assay in Rats
The compound of Example 489 at doses of 1000 and 2000 mg/kg was orally administered to 8 to 9-week-old rats (Crl:CD(SD), five/group) once daily for 3 days, and micronucleus induction was evaluated in bone-marrow cells, and DNA damage was evaluated by DNA fragmentation of cell nucleus in the liver and glandular stomach.
Sample for comet assay was obtained from liver and glandular stomach by the following procedures. A part of left lateral lobe of liver was washed well with a cooled mincing buffer solution (Hanks' balanced salt solution containing 20 mmol/L EDTA and 10 vol % DMSO, pH7.5), and minced finely with dissecting scissors. This sample was kept on ice for 15 to 30 seconds, the precipitated large cell mass was removed, and the obtained cell suspension was kept on ice. Glandular stomach was added to a cooled mincing buffer solution, and kept on ice for 15 to 30 min. Then, the surface epithelium was removed by scraping gently twice, the stomach mucosa was washed well with a cooled mincing buffer solution, and the mucosa surface was taken out by scraping carefully four times or five times. This was kept on ice for 15 to 30 seconds, the precipitated large cell mass was removed, and the obtained cell suspension was kept on ice.
The liver and glandular stomach cell suspensions prepared by the above-mentioned procedures were added to 0.5 w/v % low-melting agarose so that the concentration became 10 vol % or less, 40 μL of the suspension was dropped to MAS-coated slide (Matsunami Glass Ind., Ltd.), and fixed to give a slide sample. The slide sample was immersed in a cooled cell lysate [an aqueous solution containing 2.5 mol/L sodium chloride, 100 mmol/L EDTA, 10 mmol/L tris(hydroxymethyl)aminomethane, 10 vol % DMSO and 1 vol % Triton X-100, pH 10.0], and kept overnight under light shielding in a refrigerator (2 to 8° C.).
The slide sample was washed with ultrapure water, set at random into an electrophoresis apparatus filled with an alkali buffer solution (an aqueous solution containing 0.3 mol/L sodium hydroxide and 1 mmol/L EDTA, pH >13) for electrophoresis. After confirming that the sample was completely immersed, the sample was left for 20 min to unwind the strands. Next, electrophorese was performed at a constant voltage of 0.7 to 1 V/cm (current is set about 0.30 A) for 20 min (the electrophoresis apparatus was kept on ice so that the alkali buffer solution for electrophoresis was kept at a constant temperature of 10° C. or below, during from the dissociation of the strands to electrophoresis). After electrophoresis, the slide sample was immersed in a neutralizing solution [0.4 mol/L aqueous tris(hydroxymethyl)aminomethane solution, pH 7.5] for 5 min or longer. Then, the slide sample was immersed in ethanol for 5 min or longer, and air-dried. […] The slide samples for negative control, test compound and positive control groups were encoded, and analyzed by the blind method. In each individual animal, 150 of suitable cells were selected for observation using a biological microscope with fluorescence attachment at 200-fold final magnification, and analyzed by image analysis software (Comet Assay IV, Perceptive Instruments Ltd.). The degree of the DNA damage was evaluated by % tail intensity calculated automatically from image analysis software. The median of the % tail intensity was calculated in each slide sample, and the average of the median was calculated in each individual. […]

O=C1c2cc(-c3nnc(C(F)F)o3)cnc2CN1[C@@H]1CCCC[C@H]1NC(=O)C(F)(F)C(F)(F)F [Example 489, N-((1R,2R)-2-(3-(5-(difluoromethyl)-1,3,4-oxadiazol-2-yl)-5-oxo-5,7-dihydro-6H-pyrrolo[3,4-b]pyridin-6-yl)cyclohexyl)-2,2,3,3,3-pentafluoropropanamide]
histone H2AX phosphorylation (γH2AX) resulted from DNA strand breakage [1]: did not induce histone H2AX phosphorylation
potential for DNA strand breakage (judgement) [1]: negative
genotoxic potential (judgement, micronucleus test and comet assay combined) [2]: negative
micronucleus formation in bone-marrow cell [2]: not induced
DNA strand breakage in liver and glandular stomach cells [3]: not induced
